Experimental data taken from patent US10626095B2, “Cyanotriazole compounds” (OTSUKA PHARMACEUTICAL CO., LTD., priority 2013, dated 2020).

test system: NaCT-CHO (CHO cells stably expressing human NaCT); assay: Assay of the citric acid cycle activation ([1,5-14C]-citric acid, diffusion of [14C]-CO2); type: cell-based; conditions: 1 hour incubation at 37° C. with [1,5-14C]-citric acid
Text: Assay of the Citric Acid Cycle Activation
(1) Construction of the Human NaCT Expression Vector pME-NaCT
The human NaCT (also called SLC13A5 or NAC2; GenBank accession No. NM_177550) cDNA was inserted into the EcoRI-NotI site of the mammalian expression vector pME18S (GenBank accession No. AB009864) and purified by Qiagen Plasmid Maxi Kit (Qiagen).
(2) Establishment of NaCT Stably Expressed CHO Cells
The pME-NaCT vector and the pcDNA™3.1 vector containing the neomycin resistance gene (Life Technologies) were co-transfected into CHO-K1 cells (ATCC) by Lipofectaimine 2000 reagent (Life Technologies). The next day the cells were subcultured in Nutrient Mixture F-12 Ham (Sigma-Aldrich) with 10% FBS (Biological Industries), and Geneticin (Life Technologies) was added (final concentration 350 μg/mL) in the following day. CHO cell clones stably expressing NaCT were given by neomycin resistant cell screening and limiting dilution method. Established cell lines (named NaCT-CHO) were also maintained in culture medium (Nutrient Mixture F-12 Ham) with 10% FBS and 350 μg/mL Geneticin. For control cells (named pME-CHO) preparation, the naive pME18S were also transfected instead of pME-NaCT into CHO-K1 cells.
(3) Assay of the Citric Acid Cycle Activation
NaCT-CHO and pME-CHO were plated at 20,000 cells/well into white CulturPlate™-96 (PerkinElmer) two days before the assay. Prior to assay incubation, the cultured plates were washed twice with washing buffer, 10 mM HEPES-Tris(pH7.4) containing 140 mM choline chloride, 2 mM KCl, 1 mM CaCl2, 1 mM MgCl2. The compounds to be tested were dissolved and diluted in DMSO (Wako Pure Chemical industries) to 1,000 times of a final concentration, and further diluted to two times as high as the final concentration in assay buffer, 10 mM HEPES-Tris(pH7.4) containing 140 mM NaCl, 2 mM KCl, 1 mM CaCl2, 1 mM MgCl2. The range of final concentrations was properly determined based on the test compounds activity. Each 25 μL compound solution was added to well and subsequently 25 μL radio-labeled substrate solution containing 0.4 mM (0.4 MBq/mL) [1,5-^14C]-citric acid (PerkinElmer) in the assay buffer was added. After 1 hour incubation at 37° C., the reaction mixture was discarded and washed three times with pre-chilled washing buffer and then 0.1 mL MicroScint 20 (PerkinElmer) was added to well. The plate was sealed with TopSeal-A (PerkinElmer) and the radioactivity was measured using a TopCount (PerkinElmer). Non-specific activity (NS cpm) and total radio activity (Total cpm) were determined by counting of pME-CHO plated wells and NaCT-CHO plated wells without compounds, respectively. Diffusion of [^14C]—CO2 was able to be estimated from residual radioactivity (R cpm) by an equation (Total−R)/(Total−NS)×100(%). The difference of Total and R was disappeared in the presence of 0.1 μM antimycin A. EC50 values were calculated by regression analysis using SAS Statistical Analysis System (SAS institute Japan Ltd. Release 9.1).

| SMILES | EC50 [nM] |
| --- | --- |
| N#Cc1[nH]nnc1-c1cc(CCc2cccc(C(F)(F)F)n2)cc(C(F)(F)F)c1 [Example 39, 5-{3-trifluoromethyl-5-[2-(6-trifluoromethyl-pyridin-2-yl)-ethyl]-phenyl}-3H-[1,2,3]triazole-4-carbonitrile] | 710 |
| N#Cc1[nH]nnc1-c1cccc(CCc2ccc(F)cc2F)c1 [Example 40, 5-{3-[2-(2,4-difluoro-phenyl)-ethyl]-phenyl}-3H-[1,2,3]triazole-4-carbonitrile] | 550 |
| N#Cc1[nH]nnc1-c1cccc(/C=C/c2cccc(C(F)(F)F)c2)c1Cl [Example 42, 5-{2-chloro-3-[(E)-2-(3-trifluoromethyl-phenyl)-vinyl]-phenyl}-3H-[1,2,3]triazole-4-carbonitrile] | 590 |
| CCOc1c(/C=C/c2cccc(C(F)(F)F)c2)cccc1-c1nn[nH]c1C#N [Example 43, 5-{2-ethoxy-3-[(E)-2-(3-trifluoromethyl-phenyl)-vinyl]-phenyl}-3H-[1,2,3]triazole-4-carbonitrile] | 670 |
| CCOc1ccc(/C=C/c2cccc(-c3nn[nH]c3C#N)c2)cc1 [Example 44, 5-{3-[(E)-2-(4-ethoxy-phenyl)-vinyl]-phenyl}-3H-[1,2,3]triazole-4-carbonitrile] | 690 |
| N#Cc1ccc(-c2nn[nH]c2C#N)cc1/C=C/c1cccc(C(F)(F)F)c1 [Example 45, 5-{4-cyano-3-[(E)-2-(3-trifluoromethyl-phenyl)-vinyl]-phenyl}-3H-[1,2,3]triazole-4-carbonitrile] | 910 |
| N#Cc1[nH]nnc1-c1ccc(C(F)(F)F)c(/C=C/c2cccc(C(F)(F)F)c2)c1 [Example 46, 5-{4-trifluoromethyl-3-[(E)-2-(3-trifluoromethyl-phenyl)-vinyl]-phenyl}-3H-[1,2,3]triazole-4-carbonitrile] | 980 |
| N#Cc1[nH]nnc1-c1cccc(/C=C/c2ccc(C(F)(F)F)cn2)c1 [Example 48, 5-{3-[(E)-2-(5-trifluoromethyl-pyridin-2-yl)-vinyl]-phenyl}-3H-[1,2,3]triazole-4-carbonitrile] | 430 |
| N#Cc1[nH]nnc1-c1cccc(/C=C\c2cc(C(F)(F)F)cc(C(F)(F)F)c2)c1 [Example 53, 5-{3-[(Z)-2-(3,5-bis-trifluoromethyl-phenyl)-vinyl]-phenyl}-3H-[1,2,3]triazole-4-carbonitrile] | 480 |
| CN(Cc1cccc(-c2nn[nH]c2C#N)c1)c1ccc(F)cc1 [Example 54, 5-(3-{[N-(4-fluoro-phenyl)-N-methyl-amino]-methyl}-phenyl)-3H-[1,2,3]triazole-4-carbonitrile] | 430 |
| N#Cc1[nH]nnc1-c1cccc(COc2ccc(C(F)(F)F)cn2)c1 [Example 56, 5-[3-(5-trifluoromethyl-pyridin-2-yloxymethyl)-phenyl]-3H-[1,2,3]triazole-4-carbonitrile] | 730 |
| N#Cc1[nH]nnc1-c1cccc(COc2cc(C(F)(F)F)cc(C(F)(F)F)c2)c1 [Example 57, 5-[3-(3,5-bis-trifluoromethyl-phenoxymethyl)-phenyl]-3H-[1,2,3]triazole-4-carbonitrile] | 480 |
| CN(Cc1cc(C(F)(F)F)cc(C(F)(F)F)c1)c1cccc(-c2nn[nH]c2C#N)c1 [Example 58, 5-{3-[N-(3,5-bis-trifluoromethyl-benzyl)-N-methyl-amino]-phenyl}-3H-[1,2,3]triazole-4-carbonitrile] | 720 |
| N#Cc1[nH]nnc1-c1cccc(OCc2cc3ccccc3o2)c1 [Example 59, 5-[3-(benzofuran-2-ylmethoxy)-phenyl]-3H-[1,2,3]triazole-4-carbonitrile] | 500 |
| COc1ccccc1COc1cc(-c2nn[nH]c2C#N)cc(C(F)(F)F)c1 [Example 61, 5-[3-(2-methoxy-benzyloxy)-5-trifluoromethyl-phenyl]-3H-[1,2,3]triazole-4-carbonitrile] | 440 |
| COc1cc(OCc2cc(C(F)(F)F)ccc2C(F)(F)F)cc(-c2nn[nH]c2C#N)c1 [Example 62, 5-[3-(2,5-bis-trifluoromethyl-benzyloxy)-5-methoxy-phenyl]-3H-[1,2,3]triazole-4-carbonitrile] | 600 |

| SMILES | EC50 [nM] |
| --- | --- |
| N#Cc1[nH]nnc1-c1cc(OCc2cc(C(F)(F)F)ccc2C(F)(F)F)cc(C(F)(F)F)c1 [Example 63, 5-[3-(2,5-bis-trifluoromethyl-benzyloxy)-5-trifluoromethyl-phenyl]-3H-[1,2,3]triazole-4-carbonitrile] | 960 |
| CC(Oc1cc(-c2nn[nH]c2C#N)cc(C(F)(F)F)c1)c1ccccc1 (centres unmarked) [Example 64, 5-[3-(1-phenyl-ethoxy)-5-trifluoromethyl-phenyl]-3H-[1,2,3]triazole-4-carbonitrile] | 240 |
| N#Cc1[nH]nnc1-c1cccc(CSCc2ccc(OC(F)(F)F)cc2)c1 [Example 65, 5-[3-(4-trifluoromethoxy-benzylsulfanylmethyl)-phenyl]-3H-[1,2,3]triazole-4-carbonitrile] | 790 |
| N#Cc1[nH]nnc1-c1cccc(CCOc2ccc(C(F)(F)F)cn2)c1 [Example 66, 5-{3-[2-(5-trifluoromethyl-pyridin-2-yloxy)-ethyl]-phenyl}-3H-[1,2,3]triazole-4-carbonitrile] | 660 |
| CC(Cc1ccccc1)Oc1cc(-c2nn[nH]c2C#N)cc(C(F)(F)F)c1 (centres unmarked) [Example 67, 5-[3-(1-methyl-2-phenyl-ethoxy)-5-trifluoromethyl-phenyl]-3H-[1,2,3]triazole-4-carbonitrile] | 490 |
| N#Cc1[nH]nnc1-c1ccc(-c2cccc(C(F)(F)F)c2)cc1 [Example 68, 5-(3′-trifluoromethyl-biphenyl-4-yl)-3H-[1,2,3]triazole-4-carbonitrile] | 460 |
| N#Cc1[nH]nnc1-c1ccc(-c2cc(C(F)(F)F)ccn2)cc1 [Example 69, 5-[4-(4-trifluoromethyl-pyridin-2-yl)-phenyl]-3H-[1,2,3]triazole-4-carbonitrile] | 530 |
| Cc1cc(-c2nn[nH]c2C#N)ccc1Cc1cccc(C(F)(F)F)c1 [Example 71, 5-[3-methyl-4-(3-trifluoromethyl-benzyl)-phenyl]-3H-[1,2,3]triazole-4-carbonitrile] | 590 |
| N#Cc1[nH]nnc1-c1ccc(Oc2cccc(C(F)(F)F)c2)c(F)c1 [Example 72, 5-[3-fluoro-4-(3-trifluoromethyl-phenoxy)-phenyl]-3H-[1,2,3]triazole-4-carbonitrile] | 300 |
| N#Cc1[nH]nnc1-c1ccc(/C=C/c2cccc(C(F)(F)F)c2)cc1F [Example 73, 5-{2-fluoro-4-[(E)-2-(3-trifluoromethyl-phenyl)-vinyl]-phenyl}-3H-[1,2,3]triazole-4-carbonitrile] | 730 |
| N#Cc1[nH]nnc1-c1nc(-c2ccc(OC(F)(F)F)cc2)cs1 [Example 74, 5-[4-(4-trifluoromethoxy-phenyl)-thiazol-2-yl]-3H-[1,2,3]triazole-4-carbonitrile] | 2910 |
| N#Cc1[nH]nnc1-c1csc(-c2ccc(F)c(Cl)c2)n1 [Example 76, 5-[2-(3-chloro-4-fluoro-phenyl)-thiazol-4-yl]-3H-[1,2,3]triazole-4-carbonitrile] | 590 |
| N#Cc1[nH]nnc1-c1csc(-c2ccc(OC(F)(F)F)cc2)n1 [Example 80, 5-[2-(4-trifluoromethoxy-phenyl)-thiazol-4-yl]-3H-[1,2,3]triazole-4-carbonitrile] | 870 |
| N#Cc1[nH]nnc1-c1csc(/C=C/c2cccc(C(F)(F)F)c2)n1 [Example 81, 5-{2-[(E)-2-(3-trifluoromethyl-phenyl)-vinyl]-thiazol-4-yl}-3H-[1,2,3]triazole-4-carbonitrile] | 990 |
| N#Cc1[nH]nnc1-c1csc(OCc2ccc(Cl)cc2)n1 [Example 82, 5-[2-(4-chloro-benzyloxy)-thiazol-4-yl]-3H-[1,2,3]triazole-4-carbonitrile] | 760 |
| CN(c1ccc(Cl)cc1)c1nc(-c2nn[nH]c2C#N)cs1 [Example 83, 5-{2-[N-(4-chloro-phenyl)-N-methyl-amino]-thiazol-4-yl}-3H-[1,2,3]triazole-4-carbonitrile] | 1080 |
